Source: patent US20140106354A1, “Method of Diagnosing Cancer” (GARVAN INSTITUTE OF MEDICAL RESEARCH, priority 2011, published 2014)

How the values were obtained:
Format in all cases: cell-based, human
A2780 cells = test: Pharmacological reactivation of methylated genes by 5-Aza-dC, Affymetrix U133 plus 2 expression arrays, A2780; settings: A2780, 5 μM, 24 hours
Procedure: (§1) Experiments were performed in triplicate using ovarian cancer cell lines A2780 and CaOV3, derived from primary Type II EOC. Cell lines were treated at 30% confluence with 5 μM and 2.5 μMrespectively (concentrations previously optimized to minimize cellular toxicity, data not shown), with the DNA methyltransferase inhibitor 5-aza-2′ deoxycytidine (5-Aza-dC), (Sigma Aldrich, St. Louis Mo., USA) for 24 hours. Cells were then expanded to 90% confluency, media changed every 24 hr before extracting RNA (RNeasy, Qiagen). As a positive control, re-expression and DNA demethylation for the methylated gene DLEC1 was verified by qPCR and clonal bisulphite sequencing.
(§2) Total RNA from A2780 and CaOV3 cell lines, plus and minus treatment with 5-Aza-dC was characterized on the Agilent bioanalyzer RNA nano chip (Agilent, Foster City Calif., USA) for an RNA integrity number (RIN) of >9.0, labeled and hybridized to Affymetrix human genome U133 plus 2 GeneChips essentially according to manufacturer's instructions. The GeneChip scans were analyzed by GCOS (Affymetrix) and resulting probeset intensities normalized by the robust multi-array average (RMA) method (Irizarry, et al., Biostatistics 4: 249-264, 2003). […] The data were normalized separately for each cell line and robust multichip average (RMA) values for analysis were imported into Genespring GX 7.3. Genes re-expressed by 5-Aza-dC were identified as “absent” (undetectable) in all three replicate untreated samples and “present” or “marginal” (detectable) in two of three replicate 5-Aza-dC treated samples.
(§3) Three steps were implemented to identify aberrantly silenced and methylated genes in EOC. First, to identify genes potentially silenced by DNA methylation, genome wide epigenetic reexpression profiles were generated for two ovarian cancer cell lines. […] Genes showing potential methylation-based silencing were identified if they were undetectable in the untreated cells, but re-expressed by 5-Aza-dC treatments. Using these criteria 947 and 1091 probesets were identified in A2780 and CaOV3 cells respectively, that were reactivated.

CaOV3 cells = test: Pharmacological reactivation of methylated genes by 5-Aza-dC, Affymetrix U133 plus 2 expression arrays, CaOV3; settings: CaOV3, 2.5 μM, 24 hours
Procedure: as §1, §2, §3

DLEC1 = test: Positive control: re-expression and demethylation of DLEC1 (qPCR, clonal bisulphite sequencing); settings: A2780 and CaOV3 cells treated with 5-Aza-dC
Procedure: as §1

**Q.** Which “probesets reactivated (undetectable in untreated cells, re-expressed by 5-Aza-dC)” value (A2780 cells; HGU133 plus 2.0) does the source give for `Nc1ncn([C@H]2C[C@H](O)[C@@H](CO)O2)c(=O)n1` [5-Aza-dC, 5-aza-2′ deoxycytidine] here?
**A.** Its value is 947 probesets.

**Q.** And the “Fold Change 5-aza-dC vs” value (A2780 cells; ARMXC1 mRNA, probeset 218694_at)?
**A.** The value was 1.19.

**Q.** What about the “Fold Change 5-aza-dC vs” value (A2780 cells; HSPA2 mRNA, probeset 211538_s_at) of the same compound?
**A.** Its value is 33.78.

**Q.** What about the “Fold Change 5-aza-dC vs” value (A2780 cells; IL18 mRNA, probeset 206295_at) of the same compound?
**A.** The value was 1.20.

**Q.** And the “Fold Change 5-aza-dC vs” value (A2780 cells; LTBP2 mRNA, probeset 223690_at)?
**A.** Its value is 1.57.

**Q.** And the “Fold Change 5-aza-dC vs” value (A2780 cells; PAPLN mRNA, probeset 226435_at)?
**A.** Its value is 2.78.

**Q.** And the “Fold Change 5-aza-dC vs” value (A2780 cells; PARVA mRNA, probeset 222454_s_at)?
**A.** The value was 1.78.

**Q.** What about the “Fold Change 5-aza-dC vs” value (A2780 cells; PEG3 mRNA, probeset 209242_at) of the same compound?
**A.** The value was 3.87.

**Q.** What about the “Fold Change 5-aza-dC vs” value (A2780 cells; PYCARD mRNA, probeset 221666_s_at) of the same compound?
**A.** Its value is 3.72.

**Q.** What about the “Fold Change 5-aza-dC vs” value (A2780 cells; SCIN1 mRNA, probeset 1552365_at) of the same compound?
**A.** The value was 1.28.

**Q.** And the “Fold Change 5-aza-dC vs” value (A2780 cells; SGNE1 mRNA, probeset 203889_at)?
**A.** Its value is 4.15.

**Q.** What about the “Fold Change 5-aza-dC vs” value (A2780 cells; SOCS1 mRNA, probeset 210001_s_at) of the same compound?
**A.** The value was 4.80.

**Q.** And the “Fold Change 5-aza-dC vs” value (A2780 cells; SPOCK2 mRNA, probeset 202524_s_at)?
**A.** Its value is 1.41.

**Q.** And the “Fold Change 5-aza-dC vs” value (A2780 cells; ZNF177 mRNA, probeset 207417_s_at)?
**A.** Its value is 1.61.

**Q.** What about the “Fold Change 5-aza-dC vs” value (A2780 cells; ZNF542 mRNA, probeset 239250_at) of the same compound?
**A.** Its value is 2.35.

**Q.** And the “Fold Change 5-aza-dC vs” value (CaOV3 cells; BMP6 mRNA, probeset 206176_at)?
**A.** Its value is 1.25.

**Q.** What about the “Fold Change 5-aza-dC vs” value (CaOV3 cells; CST6 mRNA, probeset 231248_at) of the same compound?
**A.** The value was 1.96.

**Q.** What about the “probesets reactivated (undetectable in untreated cells, re-expressed by 5-Aza-dC)” value (CaOV3 cells; HGU133 plus 2.0) of the same compound?
**A.** Its value is 1091 probesets.

**Q.** And the “Fold Change 5-aza-dC vs” value (CaOV3 cells; ICAM4 mRNA, probeset 207194_s_at)?
**A.** Its value is 1.89.

**Q.** And the “Fold Change 5-aza-dC vs” value (CaOV3 cells; KLF4 mRNA, probeset 220266_s_at)?
**A.** The value was 3.78.

**Q.** And the “Fold Change 5-aza-dC vs” value (CaOV3 cells; LOC134466 RNA, probeset 244289_at)?
**A.** The value was 1.18.

**Q.** And the “Fold Change 5-aza-dC vs” value (CaOV3 cells; PTGER mRNA, probeset 213933_at)?
**A.** Its value is 1.32.

**Q.** What about the “Fold Change 5-aza-dC vs” value (CaOV3 cells; TLE4 mRNA, probeset 204872_at) of the same compound?
**A.** Its value is 1.20.

**Q.** And the “re-expression and demethylation of the methylated gene DLEC1” value (DLEC1)?
**A.** The value was “induce re-expression and demethylation”.
